In US10106556B2, “Heterocyclic compound” (TAKEDA PHARMACEUTICAL COMPANY LIMITED, priority 2015, dated 2018):

Target: T1, His-hMAGL (recombinant polyhistidine tagged human MAGL protein) (Homo sapiens, UniProt Q99685)
T1 construct: made in house; host or cells: E. coli BL21(DE3)
T1 sequence (Q99685 1-303): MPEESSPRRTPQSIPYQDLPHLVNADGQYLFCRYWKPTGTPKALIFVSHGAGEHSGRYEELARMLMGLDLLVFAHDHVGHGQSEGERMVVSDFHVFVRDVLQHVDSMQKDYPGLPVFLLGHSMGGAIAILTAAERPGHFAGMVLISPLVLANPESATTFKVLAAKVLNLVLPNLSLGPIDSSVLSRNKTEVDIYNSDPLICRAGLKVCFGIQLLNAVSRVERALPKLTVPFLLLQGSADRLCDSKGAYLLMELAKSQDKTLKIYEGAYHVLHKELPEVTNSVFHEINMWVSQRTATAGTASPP
Experiment: Measurement of MAGL inhibitory activity (arachidonic acid production from 2-arachidonylglycerol, RapidFire-mass spectrometry)
Assay type: biochemical
Conditions: MAGL inhibitory rate at 10 μM test compound, 60 min preincubation with His-hMAGL, 2-arachidonylglycerol substrate, 10 min reaction at room temperature
Description: Furthermore, acetonitrile (50 μL) containing 3 μM arachidonic acid-d8 (Cayman Chemical Company) was added and the mixture was stirred.
The amount of arachidonic acid in the obtained enzyme reaction mixture was calculated by measuring by RapidFire-mass spectrometry and correcting by the amount of arachidonic acid-d8. High Throughput online solid phase extraction was performed using RapidFire 300™ system (Agilent Technologies, Inc.). Samples were loaded on SPE C4 cartridge (Agilent Technologies, Inc.) and desalted with 0.2 (v/v) % acetic acid (Wako Pure Chemical Industries, Ltd.) in ultrapure water/acetonitrile (70/30, v/v) at a flow rate of 1.5 mL/min, eluted at a flow rate of 0.5 mL/min with 0.2 (v/v) % acetic acid dissolved in acetonitrile/ultrapure water (90/10, v/v), and injected into the mass spectrometry part. The injection needle was washed with ultrapure water (500 millisecond) and acetonitrile (500 millisecond) to minimize carry-over. […] The RapidFire300 system was controlled by RapidFire UI software version 3.6 (Agilent Technologies, Inc.).
The mass spectrometry of the resultant product was performed using API4000™ triple quadrupole mass spectrometer (AB SCIEX) equipped with an electrospray ion sauce (TurboIon Spray™) in a negative selected reaction monitoring (SRM) mode. The conditions of SRM are shown below. The parameters of the instrument were optimized as follows: capillary temperature 600° C., ion spray voltage −4.5 kV, collision gas 8, curtain gas 15 psi, ion source gas 1 60 psi, ion source gas 2 60 psi. The mass spectrometer was controlled by Analyst™ software version 1.5.1 (AB SCIEX). The peak area integration was analyzed using RapidFire integrator software version 3.6 (Agilent Technologies, Inc.).
MAGL inhibitory rate (%) was calculated according to the following calculation formula. (1−(arachidonic acid production amount of test compound addition group−arachidonic acid production amount of enzyme−free group)÷(arachidonic acid production amount of test compound-free group−arachidonic acid production amount of enzyme-free group))×100

## O=C1COc2cc(F)c(C(=O)N3CC(COc4ccc(Cl)cc4-c4ccnc(F)c4)C3)cc2N1 [Example 207, 6-((3-((4-chloro-2-(2-fluoropyridin-4-yl)phenoxy)methyl)azetidin-1-yl)carbonyl)-7-fluoro-2H-1,4-benzoxazin-3(4H)-one]
  inhibition at 10 µM: 100%

## N#Cc1ccc(Cl)cc1OCC1CN(C(=O)c2cc3c(cc2F)OCC(=O)N3)C1 [Example 137, 4-chloro-2-((1-((7-fluoro-3-oxo-3,4-dihydro-2H-1,4-benzoxazin-6-yl)carbonyl)azetidin-3-yl)methoxy)benzonitrile]
  inhibition at 10 µM: 99%

## O=C1COc2cc(F)c(C(=O)N3CC(COc4ccc(Cl)c(Cl)c4)C3)cc2N1 [Example 124, 6-((3-((3,4-dichlorophenoxy)methyl)azetidin-1-yl)carbonyl)-7-fluoro-2H-1,4-benzoxazin-3(4H)-one]
  inhibition at 10 µM: 100%

## Cc1ccc(OCC2CN(C(=O)c3cc4c(cc3F)OCC(=O)N4)C2)c(C)c1 [Example 165, 6-((3-((2,4-dimethylphenoxy)methyl)azetidin-1-yl)carbonyl)-7-fluoro-2H-1,4-benzoxazin-3(4H)-one]
  inhibition at 10 µM: 103%

## O=C1COc2cc(F)c(C(=O)N3CC(COc4ccc(Cl)cc4-c4nnco4)C3)cc2N1 [Example 175, 6-((3-((4-chloro-2-(1,3,4-oxadiazol-2-yl)phenoxy)methyl)azetidin-1-yl)carbonyl)-7-fluoro-2H-1,4-benzoxazin-3(4H)-one]
  inhibition at 10 µM: 97%

## O=C1COc2ccc(C(=O)N3CCC(COc4ccc(F)cc4Cl)CC3)cc2N1 [Example 26, 6-((4-((2-chloro-4-fluorophenoxy)methyl)piperidin-1-yl)carbonyl)-2H-1,4-benzoxazin-3 (4H)-one]
  inhibition at 10 µM: 101%

## CN1CC=C(c2ccc(OCC3CN(C(=O)c4cc5c(cc4F)OCC(=O)N5)C3)c(F)c2)CC1 [Example 245, 7-fluoro-6-((3-((2-fluoro-4-(1-methyl-1,2,3,6-tetrahydropyridin-4-yl)phenoxy)methyl)azetidin-1-yl)carbonyl)-2H-1,4-benzoxazin-3(4H)-one]
  inhibition at 10 µM: 96%

## O=C1COc2cc(F)c(C(=O)N3CC(F)(COc4ccc(F)cc4Cl)C3)cc2N1 [Example 96, 6-((3-((2-chloro-4-fluorophenoxy)methyl)-3-fluoroazetidin-1-yl)carbonyl)-7-fluoro-2H-1,4-benzoxazin-3(4H)-one]
  inhibition at 10 µM: 100%

## CC(Oc1cc(F)cc(F)c1)C1CN(C(=O)c2cc3c(cc2F)OCC(=O)N3)C1 (centres unmarked) [Example 315, 6-((3-(1-(3,5-difluorophenoxy)ethyl)azetidin-1-yl)carbonyl)-7-fluoro-2H-1,4-benzoxazin-3(4H)-one]
  % inhibition (10 μM): 102%

## Cc1ccncc1-c1cc(Cl)ccc1OCC1CN(C(=O)c2cc3c(cc2F)OCC(=O)N3)C1 [Example 203, 6-((3-((4-chloro-2-(4-methylpyridin-3-yl)phenoxy)methyl)azetidin-1-yl)carbonyl)-7-fluoro-2H-1,4-benzoxazin-3(4H)-one]
  inhibition at 10 µM: 103%

## Cn1ccc(-c2ccc(OCC3CN(C(=O)c4cc5c(cc4F)OCC(=O)N5)C3)c(F)c2)n1 [Example 252, 7-fluoro-6-((3-((2-fluoro-4-(1-methyl-1H-pyrazol-3-yl)phenoxy)methyl)azetidin-1-yl)carbonyl)-2H-1,4-benzoxazin-3(4H)-one]
  inhibition at 10 µM: 99%

## O=C1COc2cc(F)c(C(=O)N3CC(COc4ccc(N5CC(F)C5)cc4F)C3)cc2N1 [Example 292, 7-fluoro-6-((3-((2-fluoro-4-(3-fluoroazetidin-1-yl)phenoxy)methyl)azetidin-1-yl)carbonyl)-2H-1,4-benzoxazin-3(4H)-one]
  inhibition at 10 µM: 100%

## O=C1COc2cc(F)c(C(=O)N3CC(COc4cccc(Cl)c4Cl)C3)cc2N1 [Example 123, 6-((3-((2,3-dichlorophenoxy)methyl)azetidin-1-yl)carbonyl)-7-fluoro-2H-1,4-benzoxazin-3(4H)-one]
  inhibition at 10 µM: 102%

## Cc1nn(C)cc1-c1cc(Cl)ccc1OCC1CN(C(=O)c2cc3c(cc2F)OCC(=O)N3)C1 [Example 265, 6-((3-((4-chloro-2-(1,3-dimethyl-1H-pyrazol-4-yl)phenoxy)methyl)azetidin-1-yl)carbonyl)-7-fluoro-2H-1,4-benzoxazin-3(4H)-one]
  inhibition at 10 µM: 99%

## CC(OC1CN(C(=O)c2cc3c(cc2F)OCC(=O)N3)C1)c1ccc(F)cc1 (centres unmarked) [Example 354, 7-fluoro-6-((3-(1-(4-fluorophenyl)ethoxy)azetidin-1-yl)carbonyl)-2H-1,4-benzoxazin-3(4H)-one]
  inhibition at 10 µM: 102%

## COc1cc2c(cc1C(=O)N1CC(COc3ccc(F)cc3Cl)C1)NC(=O)CO2 [Example 98, 6-((3-((2-chloro-4-fluorophenoxy)methyl)azetidin-1-yl)carbonyl)-7-methoxy-2H-1,4-benzoxazin-3(4H)-one]
  inhibition at 10 µM: 99%

## O=C1COc2ccc(C(=O)N3CCC(COc4ccccc4OC(F)(F)F)CC3)cc2N1 [Example 53, 6-((4-((2-(trifluoromethoxy)phenoxy)methyl)piperidin-1-yl)carbonyl)-2H-1,4-benzoxazin-3(4H)-one]
  inhibition at 10 µM: 96%

## O=C1COc2cc(F)c(C(=O)N3CC(COc4ccc(Cl)cc4Br)C3)cc2N1 [Example 185, 6-((3-((2-bromo-4-chlorophenoxy)methyl)azetidin-1-yl)carbonyl)-7-fluoro-2H-1,4-benzoxazin-3(4H)-one]
  inhibition at 10 µM: 100%

## O=C1COc2cc(F)c(C(=O)N3CC(OCc4cccc(C(F)F)c4)C3)cc2N1 [Example 339]
  inhibition at 10 µM: 103%

## CC(Oc1cccc(F)c1F)C1CN(C(=O)c2cc3c(cc2F)OCC(=O)N3)C1 (centres unmarked) [Example 311, 6-((3-(1-(2,3-difluorophenoxy)ethyl)azetidin-1-yl)carbonyl)-7-fluoro-2H-1,4-benzoxazin-3(4H)-one]
  % inhibition (10 μM): 103%

## Cc1nc2cc(OCC3CN(C(=O)c4cc5c(cc4F)OCC(=O)N5)C3)ccc2s1 [Example 151, 7-fluoro-6-((3-(((2-methyl-1,3-benzothiazol-5-yl)oxy)methyl)azetidin-1-yl)carbonyl)-2H-1,4-benzoxazin-3(4H)-one]
  inhibition at 10 µM: 92%

## O=C1COc2cc(F)c(C(=O)N3CC(COc4ccccc4Cl)C3)cc2N1 [Example 113, 6-((3-((2-chlorophenoxy)methyl)azetidin-1-yl)carbonyl)-7-fluoro-2H-1,4-benzoxazin-3(4H)-one]
  inhibition at 10 µM: 101%

## O=C1COc2cc(F)c(C(=O)N3CC(COc4cccc(Cl)c4)C3)cc2N1 [Example 112, 6-((3-((3-chlorophenoxy)methyl)azetidin-1-yl)carbonyl)-7-fluoro-2H-1,4-benzoxazin-3(4H)-one]
  inhibition at 10 µM: 101%

## O=C1COc2ccc(C(=O)N3CCC(COc4ccccc4)CC3)cc2N1 [Example 12, 6-((4-(phenoxymethyl)piperidin-1-yl)carbonyl)-2H-1,4-benzoxazin-3(4H)-one]
  inhibition at 10 µM: 99%

## O=C(c1ccc2oc(=O)[nH]c2c1)N1CCC(COc2ccccc2Cl)CC1 [Example 29, 5-((4-((2-chlorophenoxy)methyl)piperidin-1-yl)carbonyl)-1,3-benzoxazol-2(3H)-one]
  inhibition at 10 µM: 96%

## Cc1cc(Cl)ccc1OCC1CN(C(=O)c2cc3c(cc2F)OCC(=O)N3)C1 [Example 226, 6-((3-((4-chloro-2-methylphenoxy)methyl)azetidin-1-yl)carbonyl)-7-fluoro-2H-1,4-benzoxazin-3(4H)-one]
  inhibition at 10 µM: 101%

## O=C1COc2cc(F)c(C(=O)N3CC(OCc4ccccc4)C3)cc2N1 [Example 327, 6-((3-(benzyloxy)azetidin-1-yl)carbonyl)-7-fluoro-2H-1,4-benzoxazin-3(4H)-one]
  inhibition at 10 µM: 99%

## COc1ccccc1-c1ccccc1OCC1CN(C(=O)c2cc3c(cc2F)OCC(=O)N3)C1 [Example 174, 7-fluoro-6-((3-(((2′-methoxybiphenyl-2-yl)oxy)methyl)azetidin-1-yl)carbonyl)-2H-1,4-benzoxazin-3(4H)-one]
  inhibition at 10 µM: 102%

## O=C1COc2cc(F)c(C(=O)N3CC(OCc4ccc(Cl)cc4)C3)cc2N1 [Example 343, 6-((3-((4-chlorobenzyl)oxy)azetidin-1-yl)carbonyl)-7-fluoro-2H-1,4-benzoxazin-3(4H)-one]
  inhibition at 10 µM: 102%
